Measured values published in patent publication US20210308034A1, “PREBIOTIC COMPOSITIONS AND METHODS FOR MAINTAINING A HEALTHY SKIN MICROBIOTA” (KIMBERLY-CLARK WORLDWIDE, INC., priority 2018, published 2021).
Where a SMILES comes first, the peptide text is derived from it.

Assays:
Format in all cases: cell-based
[1] = system: Staphylococcus epidermidis (ATCC 14990); assay: Carbohydrate Screening Test Method (Biolog phenotype microarray), Bacteria Code I; settings: Commensal; carbon microarray plate, OD 600 nm, 36 hr, 33° C.; positive = more than 0.05 OD units above zero; blank cell = not utilized
Description: (§1) After creating desired ratios of various commensal skin bacteria in a healthy skin microbiome, 188 different carbohydrate sources were screened as the next step in determining potential prospects for skin microbiota balancing agents. The screening process was set up to determine which carbohydrate sources promoted commensal and/or pathogenic bacteria as well as to obtain individual and combinations of carbohydrate sources that could serve as microbiota balancing agents that can support or maintain the healthy proportions of commensal skin bacteria of Corynebacterium, Staphylococcus, and Micrococcus. The screening was conducted utilizing Biolog phenotype microarray plates (Hayward, Calif.). Table 1 provides a coded list of the commensal and pathogenic skin bacteria that the carbohydrates were screened against.
Table 2 provides the results of screening various carbohydrate sources against the commensal and pathogenic bacteria codes listed in Table 1. The Bacteria Codes B, D, E, I, and J are commensal bacteria and are shaded in Table 2 for references purposes. The bacteria codes were each placed in a carbon microarray plate and screened through the Carbohydrate Screening Test Method, as described in the Test Methods section herein. If a particular bacteria code utilized a specific carbohydrate source as described in the Carbohydrate Screening Test Method, then the corresponding cell in Table 2 was marked with a Y (short for “Yes”). […] Many of the carbohydrate sources were utilized by both commensal and pathogenic bacteria, and as such, would not provide an advantage for selective growth of the commensal bacteria. However, some of the carbohydrate sources were only used by commensal bacteria and were identified for further testing as described herein.
(§2) The study employed 10 representative skin bacteria; Staphylococcus epidermidis ATCC 14990, Staphylococcus epidermidis M23864:W2, Staphylococcus aureus ATCC 6538, Staphylococcus aureus ATCC 25904 (Newman), Pseudomonas aeruginosa ATCC 9027, Micrococcus luteus ATCC […], Micrococcus luteus SK58, Klebsiella pneumoniae ATCC BAA-2146, Corynebacterium amycolatum SK46, and Corynebacterium minutissimum ATCC 23348. Cultures were started from freezer bead stocks by placing a single bead into 20 mL of tryptic soy broth (TSB) for all organisms except C. amycolatum SK46 and C. minutissimum ATCC 23348, which were placed into brain heart infusion (BHI) broth. Cultures were grown for about 24 hr at 37° C. except M. luteus ATCC 49732 and M. luteus SK58, which were grown at 30° C. A passage of the culture was made using a sterile swab and streaked onto two M9*2 agar plates to prepare the incubated culture for the phenotype microarray pate according to Table 4. Plates were incubated for about 24 hr at 37° C. except for M. luteus ATCC 49732 and M. luteus SK58, which were incubated at 30° C. for 24 hr.
(§3) All cultures were harvested and washed before inoculation into the carbon microarray plate (BiOLOG, Hayward Calif.), with Biolog Plates PM1 and PM2 each having a source definition of Carbon. The bacteria on the M9*2 agar was suspended via agitation with an inoculating loop in 1 mL of M9*1 media for collection in a 1.7 mL micro centrifuge tube, as noted in Table 4. The bacteria was suspended again in M9*1 media, agitated, and collected into the same 1.7 mL microcentrifuge tube used in the previous step. The tube was centrifuged for 5 minutes at 4,000×G, supernatant decanted, the pellet was resuspended in 1 mL of M9*1 media, and vortex. This washing process was repeated for a total of 4 times.
A tenfold dilution in M9*1 media was performed using 1 mL of the washed bacterial culture. Of the tenfold dilution 200 μL was placed in an untreated 96-well plate (Falcon, Pasadena Tx.) for an initial optical density (OD) reading at a wavelength of 600 nm. The OD was used to correlate to colony forming units (CFU) per milliliter by using linear regression lines for each organism. […]

[2] = system: Staphylococcus epidermidis (M23864:W2); assay: Carbohydrate Screening Test Method (Biolog phenotype microarray), Bacteria Code J; settings: Commensal; carbon microarray plate, OD 600 nm, 36 hr, 33° C.; positive = more than 0.05 OD units above zero; blank cell = not utilized
Description: as §1
(§4) The Bacteria Codes B, D, E, I, and J are commensal bacteria and are shaded in Table 2 for references purposes. The bacteria codes were each placed in a carbon microarray plate and screened through the Carbohydrate Screening Test Method, as described in the Test Methods section herein. If a particular bacteria code utilized a specific carbohydrate source as described in the Carbohydrate Screening Test Method, then the corresponding cell in Table 2 was marked with a Y (short for “Yes”).
To do so, the respective microarray data for the 79 carbohydrate sources was run through the GrowthRates 2.1 program to obtain growth parameters, such as growth rates and maximum yield data as described by the Belingham Research Institute, Hall, B. G., H. Acar and M. Barlow. 2014 Growth Rates Made Easy. Mol. Biol. Evol. 31:232-238 doi:10.1093/molbev/mst197. The max yield parameters generated were utilized to calculate ratios of tested commensal bacteria. The ratios calculated were compared back to the desired ratios identified above (Corynebacterium to Staphylococcus of 1.3, Corynebacterium to Micrococcus of 1.4, and Staphylococcus to Micrococcus of 1.1).
As an example of this methodology used to calculate the commensal bacteria ratios and the difference between the calculated ratios and the desired ratios, an example code from Table 3 will be described. […] The max yields were then used to calculate ratios the bacteria would reach in a co-culture.

[3] = system: commensal and pathogenic skin bacteria; assay: Carbohydrate Screening Test Method, all bacteria codes tested; settings: ten bacteria codes of Table 1
Description: as §1, §4, §2, §3
A tenfold dilution in M9*1 media was performed using 1 mL of the washed bacterial culture.

[4] = system: Corynebacterium jeikum (ATCC 33033); assay: Carbohydrate Screening Test Method (Biolog phenotype microarray), Bacteria Code B; settings: Commensal; carbon microarray plate, OD 600 nm, 36 hr, 33° C.; positive = more than 0.05 OD units above zero; blank cell = not utilized
How it was run: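 Strain from M9*2 agar was suspended in M9*1 medium, washed and inoculated into Biolog PM1/PM2 carbon plates. Carbohydrate use was scored yes/no, and growth rate and maximum yield were derived with GrowthRates 2.1, with max yields used for commensal ratios.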

[5] = system: Klebsiella pneumoniae (ATCC BAA-2146); settings: Pathogenic; carbon microarray plate, OD 600 nm, 36 hr, 33° C.; positive = more than 0.05 OD units above zero; blank cell = not utilized
[6] = system: Micrococcus luteus (SK58); assay: Carbohydrate Screening Test Method (Biolog phenotype microarray), Bacteria Code E; settings: Commensal; carbon microarray plate, OD 600 nm, 36 hr, 33° C.; positive = more than 0.05 OD units above zero; blank cell = not utilized
How it was run: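 Each commensal strain grown in Biolog carbon phenotype microarray plates with single carbohydrate sources. Growth curves fitted with GrowthRates 2.1 to give growth rate and maximum yield. Max yields used to calculate predicted co-culture ratios between Corynebacterium, Staphylococcus and Micrococcus, compared with desired ratios of 1.3, 1.4 and 1.1.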

[7] = system: Pseudomonas aeruginosa (ATCC 9027); settings: Pathogenic; carbon microarray plate, OD 600 nm, 36 hr, 33° C.; positive = more than 0.05 OD units above zero; blank cell = not utilized
Description: as §1, §4, §2, §3
A tenfold dilution in M9*1 media was performed using 1 mL of the washed bacterial culture. Of the tenfold dilution 200 μL was placed in an untreated 96-well plate (Falcon, Pasadena Tx.) for an initial optical density (OD) reading at a wavelength of 600 nm. The OD was used to correlate to colony forming units (CFU) per milliliter by using linear regression lines for each organism.

Compound	utilization by the bacteria codes tested [3]	further results
CC(O)C(C)O (stereo not drawn) [2,3-Butanediol]		Carbohydrate Screening Results, Bacteria Code I [1]: Y; Carbohydrate Screening Results, Bacteria Code J [2]: Y
O=C(CO)[C@@H](O)[C@H](O)[C@@H](O)C(=O)O [5-Keto-D-Gluconic Acid]	not utilized by any of the bacteria	
OC[C@H]1O[C@@H](O[C@H]2[C@H](O)[C@@H](O)[C@H](O)O[C@@H]2CO)[C@H](O)[C@@H](O)[C@@H]1O [D-Cellobiose]		Carbohydrate Screening Results, Bacteria Code B [4]: Y; Carbohydrate Screening Results, Bacteria Code C [5]: Y; Carbohydrate Screening Results, Bacteria Code E [6]: Y; Carbohydrate Screening Results, Bacteria Code I [1]: Y
C[C@@H](O)[C@H](O)[C@H](O)[C@@H](O)C=O [D-Fucose]	not utilized by any of the bacteria	
O=C(O)C[C@@H](O)C(=O)O [D-Malic Acid]		Carbohydrate Screening Results, Bacteria Code B [4]: Y; Carbohydrate Screening Results, Bacteria Code E [6]: Y; Carbohydrate Screening Results, Bacteria Code I [1]: Y
O=C[C@H](O)[C@H](O)[C@H](O)CO [D-Ribose]	not utilized by any of the bacteria	
N[C@H](CO)C(=O)O [D-Serine]	not utilized by any of the bacteria	
O=C(CO)[C@@H](O)[C@@H](O)[C@H](O)CO [D-Tagatose]	not utilized by any of the bacteria	
O=C(O)[C@@H](O)[C@H](O)C(=O)O [D-Tartaric Acid]	not utilized by any of the bacteria	
NCC(=O)O [Glycine]	not utilized by any of the bacteria	
NCC(=O)N1CCC[C@H]1C(=O)O [Glycyl-L-Proline] (H-Gly-Pro-OH)	not utilized by any of the bacteria	
OC[C@H](O)C(O)[C@@H](O)CO [L-Arabitol]	not utilized by any of the bacteria	
O=C[C@@H](O)[C@H](O)[C@@H](O)[C@@H](O)CO [L-Glucose]	not utilized by any of the bacteria	
N[C@@H](CCO)C(=O)O [L-Homoserine]		Carbohydrate Screening Results, Bacteria Code I [1]: Y
NCCCC[C@H](N)C(=O)O [L-Lysine]	not utilized by any of the bacteria	
O=C[C@H](O)[C@H](O)[C@@H](O)CO [L-Lyxose]	not utilized by any of the bacteria	
N[C@@H](Cc1ccccc1)C(=O)O [L-Phenylalanine]	not utilized by any of the bacteria	
CC(C)[C@H](N)C(=O)O [L-Valine]	not utilized by any of the bacteria	
COC(=O)CCC(=O)O [Mono Methyl Succinate]		Carbohydrate Screening Results, Bacteria Code B [4]: Y; Carbohydrate Screening Results, Bacteria Code E [6]: Y; Carbohydrate Screening Results, Bacteria Code I [1]: Y

Compound	utilization by the bacteria codes tested [3]	further results
CC(=O)N[C@H]1[C@H]([C@H](O)[C@H](O)CO)OC(O)(C(=O)O)C[C@@H]1O (stereo partly drawn) [N-Acetyl-Neuraminic Acid]	not utilized by any of the bacteria	
CCC(C)N (stereo not drawn) [Sec-Butylamine]	not utilized by any of the bacteria	
OC[C@@]12OC[C@@H](O1)[C@@H](O)[C@@H](O)[C@@H]2O [Sedoheptulosan]	not utilized by any of the bacteria	
C/C=C/C=C/C(=O)O [Sorbic Acid]	not utilized by any of the bacteria	
O=C(CO)[C@@H](O[C@H]1O[C@H](CO)[C@@H](O)[C@H](O)[C@H]1O)[C@H](O)[C@H](O)CO [Turanose]		Carbohydrate Screening Results, Bacteria Code I [1]: Y
OC[C@@H](O)[C@H](O)[C@@H](O)CO [Xylitol]	not utilized by any of the bacteria	
OC[C@@H](O)[C@@H](O)CO [i-Erythritol]	not utilized by any of the bacteria	
O=C(O)Cc1ccc(O)cc1 [p-hydroxy phenyl acetic acid]	not utilized by any of the bacteria	
O=C(O)CCCO [y-Hydroxy Butyric Acid]	not utilized by any of the bacteria	
CCCC(=O)C(=O)O [α-Keto-Valeric Acid]	not utilized by any of the bacteria	
CO[C@H]1O[C@H](CO)[C@@H](O)[C@H](O)[C@H]1O [α-Methyl-D-Glucoside]	not utilized by any of the bacteria	
OC[C@H]1O[C@@H](O)[C@H](O)[C@H](O)[C@@H]1O [β-D-Allose]	not utilized by any of the bacteria	
CC(O)CC(=O)O (stereo not drawn) [β-Hydroxy Butyric Acid]		Carbohydrate Screening Results, Bacteria Code F [7]: Y; Carbohydrate Screening Results, Bacteria Code I [1]: Y
COC1OCC(O)C(O)C1O [β-Methyl-D-Xyloside]	not utilized by any of the bacteria	
Glycogen	not utilized by any of the bacteria	
Laminarin	not utilized by any of the bacteria	
Tween 20	not utilized by any of the bacteria	
Tween 80		Carbohydrate Screening Results, Bacteria Code B [4]: Y; Carbohydrate Screening Results, Bacteria Code E [6]: Y; Carbohydrate Screening Results, Bacteria Code I [1]: Y
